Reference: patent US6492325B1, “Use of α1β1 integrin receptor inhibitors and TGF-β1 inhibitors in the treatment of kidney disease” (Boys Town National Research Hospital, priority 1998, dated 2002)

Key:
[1] = test system: double knockout mice; assay: Northern blot of kidney RNAs (matrix molecules, Timp) in double knockout mice treated with TGF-β1 inhibitors; type: in vivo, mouse; conditions: 10 week old double knockout mice; untreated show nine-fold reduction relative to control
Description: A. Northern Blot Analysis: Kidneys were removed and snap frozen in liquid nitrogen and ground to a powder in liquid nitrogen using a mortar and pestle. The powder was solubilized in TRIZOL reagent (GibCo/BRL, Grand Island, N.Y.) using 5 ml of reagent per kidney. Total cellular RNA was extracted according to the manufacturer's instructions. Twenty micrograms (20 μg) of RNA was fractionated on a 1.0% agarose/formaldehyde/MOPS (3-(N-morpholino)propanesulfonic acid) gel by electrophoresis at 80V for 4 hours. Gels were soaked in water for 45 minutes, and transferred to Hybond N (uncharged nylon, New England Nuclear, Inc., Boston, Mass.) by capillary blot overnight using 750 mM ammonium acetate (in water) as a transfer buffer. The RNA was UV crosslinked to the blot using a Stratalinker (Stratagene, Inc., LaJolla, Calif.). […] The quality of the RNA preparations and the consistency of loading was assessed by staining gels with ethidium bromide and scanning the 18S and 28S ribosomal RNA bands using a Gel Imager 2000 digital imaging system instrument and software package (Applied Imaging, Santa Clara, Calif.). […] Quantitative densitometric scanning confirmed no more than a 10% variance in sample loading. […] Quantitative differences in expression were assessed by phosphorimage analysis using a BioRad GS-525 phosphorimager (Bio Rad, Inc., Hercules, Calif.), and subtracted for background hybridization. […]

[2] = test system: double knockout (DKO) mice; assay: TGF-β1 inhibitors in double knockout mice, urinary albumin (proteinuria) by gel electrophoresis; type: in vivo, mouse
Description: Urine samples were collected at weekly intervals and 0.5 μl fractionated by electrophoresis through 10% denaturing acrylamide gels. The protein in the gels was stained with coomassie blue and photographed. Bovine serum albumin was used as a molecular weight standard.
Mice (DKO mice are null for both the collagen α3(IV) and integrin α1 genes) were injected with TGF-β1 inhibitors FK506 (2 μg/gram body weight, twice weekly, intraperitoneal injections) or Biogen's TGF-β1 soluble receptor (25 μg per injection, twice weekly, intravenous injections) starting at four weeks of age. The kidneys were taken at 10 weeks of age and analyzed. The 10 week time point was chosen since, in the double knockouts, the disease typically progresses to the point where significant irregular thickening of the GBM is observed, and the animals are beginning to progress towards end stage renal failure. Thus, if the TGF-β1 inhibitors are to provide additional protective benefits, those benefits should be evident at this stage in GBM disease progression. […] A typical example of these differences is illustrated in FIG. 14. […]
Proteinuria was examined in these same mice collected weekly during the course of treatment. Samples (equivalent to approximately one half of one microliter) were analyzed by electrophoresis on polyacrylamide gels. […]

[3] = test system: 129 Sv/J Alport mouse; assay: TGF-β1 inhibitors in 129 Sv/J Alport mouse, scanning electron microscopy of glomeruli; type: in vivo; conditions: 7 week old Alport mice, treated twice weekly from 3 weeks of age
Text: B. Scanning Electron Microscopy: Small pieces (approximately 2 mm cubes) of kidney cortex were fixed in 3% phosphate buffered glutaraldehyde, then postfixed in 1% phosphate buffered osmium tetroxide. Samples were then dehydrated in graded ethanols, and critical point dried in carbon dioxide. The cubes were then cracked in pieces by stressing them with the edge of a razor blade, and mounted with glue onto stubs with the cracked surface facing upward. The surface was sputter coated with gold/palladium using well known procedures and visualized with a scanning electron microscope.
(§1) The experimental protocol was to inject with either FK506 (2 μg/g body weight, injected intraperitoneally, Fujisawa Pharmaceutical Co., Ltd., Osaka, Japan), or a soluble TGF-B1 receptor (25 μg/injection, intravenously through the tail vein, Biogen Inc., Cambridge, Mass.) twice weekly starting at 3 weeks of age. Kidneys were harvested at 7 weeks of age and subjected to the described analyses.
Some of the kidney specimen was processed for scanning electron microscopy. Glomeruli were exposed by freeze fracture of renal cortex, which removes the Bowman's capsule, exposing the outer layer of podocytes as they cover the capillary loops of the glomerulus. […]

[4] = test system: double knockout mice; assay: Immunoperoxidase staining for collagen type I and fibronectin in tubulointerstitium of double knockout mice; type: in vivo, mouse; conditions: 10 week old double knockout mice
Text: E. Immunoperoxidase Detection: The immunoperoxidase detection method was used in immunostaining for TGF-β1 in glomeruli as well as fibronectin and collagen type I in tubunointerstitium. The collagen type I antibody is rabbit anti-mouse, and was purchased from Biogenesis, Inc. (Sandown, N.H.). The antisera was used at a 1:100 dilution for immunoperoxidase staining. The fibronectin antibody used was the same as for immunfluorescence staining (a rabbit anti-human fibronectin antisera from Sigma Chemical Company, St. Louis, Mo.), and was used at a 1:100 dilution. […]
(§2) Mice (DKO mice are null for both the collagen α3(IV) and integrin α1 genes) were injected with TGF-β1 inhibitors FK506 (2 μg/gram body weight, twice weekly, intraperitoneal injections) or Biogen's TGF-β1 soluble receptor (25 μg per injection, twice weekly, intravenous injections) starting at four weeks of age. The kidneys were taken at 10 weeks of age and analyzed. […]
The role of TGF-β1 in upregulation of matrix proteins and in renal fibrosis has been well established (Yang et al., J. Am. Soc. Nephrol., 5:1610-1617, 1995; Border and Ruoslahti, J. Clin. Invest., 90:1-7, 1992). […] Animals injected with TGF-β1 inhibitors were analyzed using three markers for interstitial fibrosis and compared directly with 10 week old double knockout animals that were not treated with inhibitors. […]

[5] = test system: 129 Sv/J Alport mouse; assay: TGF-β1 inhibitors in 129 Sv/J Alport mouse, transmission electron microscopy of GBM ultrastructure; type: in vivo; conditions: 7 week old Alport mice, treated twice weekly from 3 weeks of age
Description: (§3) A. Transmission Electron Microscopy: Fresh external renal cortex was minced in 4% paraformaldehyde, allowed to fix for 2 hours, and stored at 5° C. in PBS (pH 7.4). The tissue was washed extensively (5 times for 10 minutes each at 4° C.) with 0.1M Sorenson's buffer (Sorenson's buffer was made by combining 100 ml of 200 mM monobasic sodium phosphate and 400 ml of 200 mM dibasic sodium phosphate with 500 ml of water, and adjusted to pH 7.4), and postfixed in 1% osmium tetroxide in Sorenson's buffer for 1 hour. The tissue was then dehydrated in graded ethanol (70%, then 80%, then 90%, then 100% for ten minutes each), and finally in propylene oxide and embedded in Poly/Bed 812 epoxy resin (Polysciences, Inc., Warrington, Pa.) following the procedures described by the manufacturer. In short, 42 ml of polybed 812 was mixed with 26 ml of dodecylsuccinic anhydride (DDSA, Polysciences, Inc.) and 24 ml of nadic methyl anhydride (Polysciences Inc.). One and a half mls of 2,4,6 tri(dimethly aminomethyl) phenol was added as a catalyst, and the activated resin frozen in 10 ml aliquots until needed for embedding specimen. Glomeruli were identified in 1 μm (micron) sections stained with toluidine blue, and thin sections were cut at 70 nm (nanometer) thickness using a Reichert Jung Ultracut E ultramicrotome (Cambridge Instrument Co, Vienna, Austria). […]

[6] = test system: 129 Sv/J Alport mouse; assay: Dual immunofluorescence staining for laminin α2 chain in glomeruli of treated Alport mice; type: in vivo; conditions: 7 week old 129 Sv/J Alport mouse
Description: as §1
In dual fluorescence analysis, fresh renal cortex was embedded in Tissue Tek aqueous embedding compound, snap frozen, and cut at 4 microns on a cryostat. Slides were postfixed in cold (−20° C.) 100% acetone for 10 minutes, and then air dried overnight. Tissue was rehydrated by three washes in PBS for 10 minutes each. The primary antibodies were diluted together in 7% non-fat dry milk (BioRad). An anti-entactin antibody (Chemicon Inc.) was used as a known marker for glomerular basement membrane at a dilution of 1:200. The laminin α2 chain-specific antibody was a gift from Dr. Peter Yurchenco (Robert Wood Johnson Medical School, Piscataway, N.J.). The specificity of this antibody for the laminin α2 chain was illustrated in Cheng et al., J. Biol. Chem., 272:31525-31532, 1997. The antibody was used at a concentration of 1:10. Primary antibodies were allowed to react overnight at 4° C. in a humidified dish. […]

[7] = test system: double knockout (DKO) mice; assay: TGF-β1 inhibitors in double knockout mice, transmission electron microscopy of GBM ultrastructure; type: in vivo, mouse; conditions: treated twice weekly from 4 weeks, kidneys taken at 10 weeks
Description: as §3, with “Inc.).” for “Inc.). One and a half mls of 2,4,6 tri(dimethly aminomethyl) phenol was added as a catalyst, and the activated resin frozen in 10 ml aliquots until needed for embedding specimen. Glomeruli were identified in 1 μm (micron) sections stained with toluidine blue, and thin sections were cut at 70 nm (nanometer) thickness using a Reichert Jung Ultracut E ultramicrotome (Cambridge Instrument Co, Vienna, Austria).”
as §2

## C=CC[C@@H]1/C=C(\C)C[C@H](C)C[C@H](OC)[C@H]2O[C@@](O)(C(=O)C(=O)N3CCCC[C@H]3C(=O)O[C@H](/C(C)=C/[C@@H]3CC[C@@H](O)[C@H](OC)C3)[C@H](C)[C@@H](O)CC1=O)[C@H](C)C[C@@H]2OC [FK506, tacrolimus]
[1]
  Timp-3 mRNA expression in kidney: reduction in Timp-3 expression is not observed
[2]; double knockout mice, relative to untreated double knockout mice, urine collected weekly
  Performance of the glomerular filter (urinary albumin): markedly improved
[2]; normal and DKO mice treated with FK506
  Urinary protein bands related to nephrotoxic effects: diffuse group of bands evident at every timepoint
[3]
  Surface of the glomerulus / podocyte foot processes (scanning electron microscopy): looks much the same as that in the untreated Alport mouse
[4]
  Collagen type I accumulation in interstitium of renal cortex: relative absence of collagen type I accumulation
[5]
  GBM thickening (transmission electron microscopy): obvious lack of basement membrane thickening
  Podocyte foot process architecture (transmission electron microscopy): significant degree of swelling in the foot processes
[6]
  Accumulation of laminin α2 in the GBM: does not prevent the accumulation of laminin α2
[7]
  Focal GBM thickening and foot process effacement (transmission electron microscopy): marked reduction of both focal GBM thickening and foot process effacement
